The species entered for data set [1] is Homo sapiens. Description: Inhibition of beta amyloid-ABAD interaction by ELISA at 1 mM.
Data set [2] can be described thus: Inhibition of beta amyloid-ABAD interaction by ELISA. Details: species or system Homo sapiens.
Data set [3] is described as follows: Partition coefficient, log P of the compound. It is filed as physicochemical. As to conditions: octanol/water.

SMILES strings stand for the structures. Calls of active or inactive are those of the source. The rule behind the calls is not given here.

As a reminder, the IC50 is the concentration that inhibits the measured activity by half. Low values mean inhibition by little substance, high ones a need for much substance. In general, inhibition refers to the change of the read-out against control, counted positive when it falls. The low end stands for a response near the control, the high end for a response far below the control. Broadly, the logP is the decadic logarithm of the partition coefficient of the neutral form, usually between octanol and water. High values mean higher lipophilicity, low ones lower lipophilicity.

On to `CCOc1ccc2nc(NC(=O)Nc3ccc(O)c(C(=O)OC)c3)sc2c1`, for which the outcome in data set [1] was Active. Besides, in data set [2], the IC50 came out at 20.6 µM.
For `O=C(Nc1ccc(O)c(C(=O)O)c1)Nc1nc2ccc(OC(F)(F)F)cc2s1`, in that order: “Active” and 185 µM.
For `COC(=O)c1ccc(NC(=O)Nc2nc3ccc(F)cc3s2)c(I)c1`, in that order: “Active” and 286 µM.
In data set [1], `CCOc1ccc2nc(NC(=O)c3ccccc3)sc2c1` displayed an inhibition of less than 50%.
The same measure, in the same setting: under `O=C(Nc1nc2ccc(Cl)cc2s1)c1cccc(O)c1O` stands less than 50%.
On the same count and under the same terms, next, `COc1cccc(C(=O)Nc2nc3ccc(F)cc3s2)c1OC`: less than 50%.
Consider `O=C(Nc1nc2ccc(F)cc2s1)Nc1ccccc1O`, for which, in data set [1], the result was Active. Besides, half-maximal inhibition in data set [2] (IC50) required 207 µM.
The matching figures for `O=C(Nc1ccc(C(=O)O)c(O)c1)Nc1nc2ccc(Cl)cc2s1`: “Active” and 267 µM.
`O=C(Nc1cccnc1)Nc1nc2ccc(F)cc2s1`: in data set [1], the outcome was Active. The compound also came in with an IC50 in data set [2] of 282 µM.
The matching figures for `O=C(Nc1nc2ccc(Cl)cc2s1)Nc1ccc(O)cc1O`: “Active” and 23 µM.
For `COc1ccc2nc(NC(=O)Nc3ccc(O)c(C(=O)O)c3)sc2c1`, in that order: “Active” and 29.5 µM.
Turning to `COC(=O)c1cc(NC(=O)Nc2nc3ccc(OC)cc3s2)ccc1O`, the outcome in data set [1] was Active. In data set [2], this compound came in with an IC50 of 26.3 µM.
For the compound `COC(=O)c1cc(NC(=O)Nc2nc3ccc(Cl)cc3s2)ccc1O`, the logP in data set [3] was determined as 1.34. Besides, the result in data set [1] was Active. The compound also showed an IC50 in data set [2] of 6.46 µM.
Consider `COc1ccc2nc(NC(=O)Nc3cccnc3)sc2c1`, for which the result in data set [1] was Active. This compound showed an IC50 in data set [2] of 257 µM.
Compound `Cc1ccc2c(c1)sc(-c1ccc(N(C)C)cc1)[n+]2C` gave an IC50 in data set [2] of 230 µM.
Consider `O=C(Nc1nc2ccc(F)cc2s1)c1cccc(O)c1O`, for which the inhibition in data set [1] was less than 50%.
`COc1ccc2nc(NC(=O)Nc3ccc(N4CCOCC4)cc3)sc2c1`: the result in data set [1] was Active. In addition, the IC50 in data set [2] was found to be 250 µM.
Turning to `CCOc1ccc2nc(NC(=O)c3cccc(OC)c3OC)sc2c1`, the inhibition in data set [1] is less than 50%.
The same measure, in the same setting: next, `O=C(Nc1nc2ccc(O)cc2s1)c1cccc(O)c1O`: less than 50%.
The same measure, in the same setting: under `COc1ccc2nc(NC(=O)c3ccccc3)sc2c1` stands less than 50%.
With `O=C(Nc1ccc(O)cc1)Nc1nc2ccc(OC(F)(F)F)cc2s1`, the outcome in data set [1] was Active. For the same compound, it took 47.6 µM to reach half-maximal inhibition in data set [2] (IC50).
In turn, `O=C(Nc1nc2ccc(Cl)cc2s1)c1ccccc1` registered an inhibition in data set [1] of less than 50%.
For `O=C(Nc1cc(O)c2cc(S(=O)(=O)O)ccc2c1)Nc1nc2ccc(Cl)cc2s1`, the outcome in data set [1] was Active. Moreover, the IC50 in data set [2] turned out to be 267 µM.
For `COc1ccc2nc(NC(=O)N3CCN(c4ccc5c(c4)OCO5)CC3)sc2c1`, half-maximal inhibition in data set [2] (IC50) was put at 163 µM.
For the compound `COc1ccc2nc(NC(=O)NOc3ccccc3)sc2c1`, the result in data set [1] was Active. Besides, the IC50 in data set [2] is 316 µM.
For `O=C(Nc1cccnc1)Nc1nc2ccc(Cl)cc2s1`, in that order: “Active” and 247 µM.
As to `COc1cccc(C(=O)Nc2nc3ccc(Cl)cc3s2)c1OC`, the inhibition in data set [1] is less than 50%.
In the case of `COC(=O)c1cc(NC(=O)Nc2nc3ccc(OC(F)(F)F)cc3s2)ccc1O`, the result in data set [1] was Active. The compound also gave an IC50 in data set [2] of 244 µM.
With `COC(=O)c1cc(NC(=S)Nc2nc3ccc(OC)cc3s2)ccc1O`, half-maximal inhibition in data set [2] (IC50) was put at 15.6 µM. This counts as double-digit micromolar.
As for `O=C(Nc1nc2ccc(OC(F)(F)F)cc2s1)Nc1ccc(O)cc1O`, the result in data set [1] was Active. In addition, half-maximal inhibition in data set [2] (IC50) required 53.8 µM.
Compound `O=C(Nc1nc2ccc(F)cc2s1)c1ccccc1` had an inhibition in data set [1] of less than 50%.
In the case of `O=C(Nc1ccc(O)c(C(=O)O)c1)Nc1nc2ccc(F)cc2s1`, in data set [1], the outcome was Active. Further, half-maximal inhibition in data set [2] (IC50) was put at 261 µM.
As to `COc1ccc2nc(NC(=S)Nc3ccccc3)sc2c1`, the IC50 in data set [2] stood at 190 µM.
On to `O=C(Nc1cc(O)c2cc(S(=O)(=O)O)ccc2c1)Nc1nc2ccc(OC(F)(F)F)cc2s1`, for which, in data set [1], the outcome was Active. The IC50 in data set [2] was found to be 29 µM.
In data set [1], `COc1ccc2nc(NC(=O)c3cccc(OC)c3OC)sc2c1` had an inhibition of less than 50%.
With `COC(=O)c1cc(NC(=O)Nc2nc3ccc(F)cc3s2)ccc1O`, in data set [3], the logP came out at 1.15. Further, the result in data set [1] was Active. In addition, the IC50 in data set [2] was 6.56 µM.
Turning to `O=C(Nc1cccnc1)Nc1nc2ccc(OC(F)(F)F)cc2s1`, in data set [1], the result was Active. This compound registered an IC50 in data set [2] of 244 µM.
Compound `COc1ccc2nc(NC(=O)Nc3ccccc3)sc2c1` [FRENTIZOLE] yielded an IC50 in data set [2] of 200 µM.
Take `COC(=O)c1cc(C(=O)O)ccc1NC(=O)Nc1nc2ccc(Cl)cc2s1`: the result in data set [1] was Active. This compound came in with an IC50 in data set [2] of 22.7 µM.
For `COc1ccc2nc(NC(=O)NCc3ccc4c(c3)OCO4)sc2c1`, in that order: “Active” and 26.6 µM.
